In patent US20260159854A1, “NOVEL CARRIERS FOR NUCLEIC ACID AND/OR PROTEIN DELIVERY” (LUDWIG-MAXIMILIANS-UNIVERSITÄT MÜNCHEN, priority 2022, published 2026):

Legend:
[1] = test system: N2a tumor-bearing A/J mice; assay: Ex vivo luciferase expression after intravenous injection of mRNA polyplexes; assay type: in vivo
Experimental: Neuro2a cells (10^6 cells/150 μL PBS) were inoculated subcutaneously into the left flank of 6-week-old female A/J mice (Envigo RMS GmbH, Dusseldorf, Germany). Mice were randomly divided into groups of three (in the case of mRNA LNPs) or five (in the case of mRNA polyplexes) and were housed in isolated ventilated cages under specific pathogen free conditions with a 12 h day/night interval, and food and water ad libitum. Weight and general well-being were monitored continuously. Tumor size was measured with a caliper and determined by formula: a*b^2/2 (a=longest side of the tumor; b=widest side vertical to a). When tumors reached a size of 250-500 mm3, the experiments were performed by intravenous tail vein injection of polyplexes or LNPs formed as described in 6.1 and 6.3, containing 1 μg, 3 μg or 10 μg of stabilized firefly luciferase encoding mRNA (CleanCap™ FLuc mRNA (5moU); Trilink Biotechnologies, San Diego, CA, USA) in 150 μL HBG. Polyplexes containing 10 μg mRNA were dialyzed for 1 h at 4° C. against HBG (dialysis membrane MWCO 100-500 Da; Spectra/Por®, Carl Roth, Karlsruhe, Germany) prior to application to remove small amounts of ethanol. […] The luciferase gene expression was determined as described above and is presented as relative light units (RLU) per gram (g) tumor/organ.
To evaluate luciferase mRNA delivery by an ex vivo luciferase gene expression assay, organ and tumor tissues were homogenized in Luciferase Cell Culture Lysis Reagent 1× (Promega, Mannheim, Germany), supplemented with 1% (v/v) protease and phosphatase inhibitor cocktail (Sigma-Aldrich, Munich, Germany) using a tissue and cell homogenizer (FastPrep®-24, MP Biomedicals, USA). […] Luciferase activity in 25 μL supernatant was measured in a Centro LB 960 plate reader luminometer (Berthold Technologies, Bad Wildbad, Germany) for 10 sec after addition of 100 μL/well of a LAR buffer solution (20 mM glycylglycine, 1.0 mM MgCl2, 0.10 mM EDTA, 3.3 mM DTT, 0.55 mM ATP, and 0.27 mM coenzyme A; pH 8-8.5) supplemented with 5% (v/v) of a mixture of 10 mM luciferin and 29 mM glycylglycine.

[2] = test system: HeLa cells; assay: CellTiterGlo assay (relative metabolic activity); assay type: cell-based; settings: for toxicity (relative metabolic activity, CellTiter Glo): pDNA polyplexes 200 ng/well, 24 h, vs non-reducible analogs
Experimental: HeLa cells were seeded 24 h prior to transfection (5000 cells/well) in 96-well plates. Immediately prior to transfection, the medium was replaced with suitable amounts of fresh medium containing 10% (v/v) FBS to reach a final volume of 100 μL during transfection. The nanoparticles were prepared as described in section 6.1 and transfected with indicated doses. The medium was removed at 24 h after transfection, and 25 μL of fresh, pre-warmed medium as well as 25 μL of CellTiterGlo® Reagent (Promega, Mannheim, Germany) were added to each well [S. Berger et al., Biomacromolecules 2021, 22, 1282; A. Krhač Levačić et al., J Controlled Release 2021, 339, 27]. After incubation on an orbital shaker for 30 min at RT, luminescence was recorded using a Centro LB 960 plate reader luminometer (Berthold Technologies, Bad Wildbad, Germany). The luminescent signals (in RLU) of the samples were normalized to the luminescent signal of the negative control (HBG buffer-treated control cells). Results were presented as relative metabolic activity related to the negative control. Experiments were performed as triplicates.

[3] = Particle size, polydispersity and zeta potential measurement (DLS, ELS); assay type: physicochemical; design: Zeta / Size: unit not given here
Experimental: 6.6 Particle Size and Zeta Potential Measurement for pDNA, mRNA, siRNA, Cas9 mRNA/sgRNA and Cas9 mRNA/sgRNA/ssDNA Polyplexes as Well as mRNA LNPs
Measurements of size and zeta potential were performed with a Zetasizer Nano ZS (Malvern Instruments, Malvern, Worcestershire, U.K.) in a folded capillary cell (DTS1070) by dynamic and electrophoretic laser-light scattering (DLS, ELS). […] Samples were measured three times with six sub runs per measurement. For measurement of the zeta potential, all samples were diluted to 800 μL with HBG or HEPES (for siRNA polyplexes) directly before measurement. Parameters were identical to the size measurement apart from an equilibration time of 60 sec. Three measurements with 15 sub runs lasting 10 sec each were performed, and zeta potentials were calculated by the Smuchowski equation.

[4] = test system: N2a cells; assay: Co-delivery efficiency of mRNA/pDNA polyplexes by flow cytometry; assay type: cell-based, murine; settings: N/P 18, 25 and 50 ng combined nucleic acid/well
Experimental: CleanCap® mCherry mRNA (5moU) (Trilink Biotechnologies, San Diego, CA, USA) and pEGFP-N1 pDNA (Clontech Laboratories, Inc. (now Takara Bio USA, Inc., San Jose, CA, USA)) at a fixed weight ratio of 1:1 were mixed and diluted in HBG. Calculated amounts of aminolipid at indicated N/P (nitrogen/phosphate) ratios (see above) were diluted in separate tubes of HBG. Equal volumes of nucleic acid solution and aminolipid solution were mixed by rapid pipetting and incubated 40 min at RT in a closed Eppendorf reaction tube. The final concentration of nucleic acid in the polyplex solution was 5 μg/mL (2.5 μg/mL mCherry mRNA plus 2.5 μg/mL pEGFP-N1 pDNA).
mRNA/pDNA polyplex treatments were performed in triplicate in 96-well plates. N2a cells were seeded 24 h prior to transfection (10,000 cells/well). On the next day, the medium was replaced with 80 μL of fresh pre-warmed medium containing 10% (v/v) FBS. The nanoparticles were prepared as described above, and the volumes of 10 and 5 μL of polyplex solution (2.5 μg/mL mCherry mRNA and 2.5 μg/mL pEGFP-N1 pDNA) were added. 20 μL HBG buffer per well was used as negative control. After 24 h of treatment, cells were collected and re-suspended in PBS solution containing 10% (v/v) FBS (FACS buffer) for flow cytometric evaluation. All samples were analyzed by flow cytometry using a CytoFLEX S Flow Cytometer (Beckman Coulter, Brea, CA, USA). Shortly before the measurement, 1 ng/μL 4′, 6-diamidino-2-phenylindole (DAPI) was added and used to discriminate between viable and dead cells. The cellular fluorescence was assayed by excitation of DAPI at 405 nm and detection of emission at 450 nm. Only isolated viable cells were evaluated. Gates were set compared to control measurements with HBG buffer-treated cells. […] Flow cytometry data were analyzed using FlowJo™ v10.8 flow cytometric analysis software by FlowJo, LLC (Becton, Dickinson and Company, U.S.). The cellular fluorescence expression was assayed by excitation at 561 nm and 488 nm, the detection of emission at 610 nm and 530 nm for mCherry and eGFP, respectively.

[5] = test system: N2a cells; assay: Luciferase expression assay of pDNA polyplexes in N2a cells; assay type: cell-based, murine; settings: for dose dependence of pDNA transfection efficiency: dose titration 200, 100, 50, 26, 14 ng pCMVLuc/well; for transfection efficiency (luciferase expression) of pDNA polyplexes: 24 h, standard pDNA dose 200 ng/well, compared with LPEI N/P 6
[6] = test system: N2a cells; assay: Luciferase expression assay of mRNA polyplexes in N2a cells; assay type: cell-based, murine
[7] = test system: Huh7 cells; assay: Luciferase expression assay of pDNA polyplexes in Huh7 cells; assay type: cell-based, human
[8] = Cas9 mRNA/sgDMDex23 polyplexes, N/P 24, combined nucleic acid 12.5 μg/mL
[9] = mRNA LNPs, 12.5 μg/mL CleanCap FLuc mRNA (5moU), N/P 9, molar ratios see Table A
[10] = pDNA polyplexes, N/P 12, 10 μg/mL pCMVLuc
[11] = mRNA polyplexes, 12.5 μg/mL CleanCap FLuc mRNA (5moU), N/P 12 (1611, 1719, 1722, 1732), N/P 24 (1614), N/P 18 (1621, 1747)
[12] = PEGylated pDNA polyplexes 25% PEG, 10 μg/mL pCMVLuc
[13] = Targeted pDNA polyplexes 12.5% PEG 2k, 12.5% PEG-GE11, 10 μg/mL pCMVLuc
[14] = Unmodified pDNA polyplexes 0%, 10 μg/mL pCMVLuc
[15] = pDNA polyplexes, N/P 18, 10 μg/mL pCMVLuc
[16] = Cas9 mRNA/sgGFP1 polyplexes, N/P 18, combined nucleic acid 5.0 μg/mL

With `CCCCCCCCCCCCN(CCCCCCCCCCCC)CCCCCCCC(=O)NCCCC[C@H](NC(=O)CCC(=O)NCCNCCNCCNCCNC(=O)[C@@H](N)CCCCNC(=O)CCCCCCCN(CCCCCCCCCCCC)CCCCCCCCCCCC)C(=O)O` [compound 1611, K(12Oc)-Stp-K(12Oc)] the “in vivo toxicity / tolerability of mRNA polyplexes” value [1] was “good tolerability”.

In the case of `CCCCCCCCN(CCCCCCCC)CCCCCCCC(=O)NCCCC[C@H](NC(=O)CCCCCCCN(CCCCCCCC)CCCCCCCC)C(=O)NCCSSCCNC(=O)CCC(=O)NCCCC[C@H](NC(=O)CCC(=O)NCCSSCCNC(=O)[C@H](CCCCNC(=O)CCCCCCCN(CCCCCCCC)CCCCCCCC)NC(=O)CCCCCCCN(CCCCCCCC)CCCCCCCC)C(=O)NCCNCCNCCNCCNC(=O)CCC(=O)O` [compound 1792, [(8Oc)2)-K-ssbb]2-K-Stp], the “cell viability (relative metabolic activity, CellTiter Glo)” value ([2]; mRNA polyplexes, 25% of the standard mRNA dose of 250 ng/well, vs 1621) is reported as “significantly improved cell viability”.

In the case of `CCCCCCCCCCCCN(CCCCCCCCCCCC)CCCCCCCC(=O)NCCSSCCNC(=O)CCC(=O)NCCCC[C@H](NC(=O)CCC(=O)NCCNCCNCCNCCNC(=O)[C@@H](N)CCCCNC(=O)CCC(=O)NCCSSCCNC(=O)CCCCCCCN(CCCCCCCCCCCC)CCCCCCCCCCCC)C(=O)O` [compound 1821, K(ssbb-12Oc)-Stp-K(ssbb-12Oc)], the “toxicity (relative metabolic activity, CellTiter Glo)” value [2] is reported as “significantly less toxic”.

In the case of `CCCCCCCCN(CCCCCCCC)CCCCCCCC(=O)NCCCC[C@H](NC(=O)CCCCCCCN(CCCCCCCC)CCCCCCCC)C(=O)NCCSSCCNC(=O)CCC(=O)NCCCC[C@H](NC(=O)CCC(=O)NCCSSCCNC(=O)[C@H](CCCCNC(=O)CCCCCCCN(CCCCCCCC)CCCCCCCC)NC(=O)CCCCCCCN(CCCCCCCC)CCCCCCCC)C(=O)NCCNCCNCCNCCNC(=O)CCC(=O)NCCNCCNCCNCCNC(=O)CCC(=O)O` [compound 1824, [(8Oc)2)-K-ssbb]2-K-Stp2], the “toxicity (relative metabolic activity, CellTiter Glo)” value [2] is reported as “significantly less toxic”.

Molecule “K(8Oc)2-Stp2-K(8Oc)-K(8Oc) [compound 1731]” has a Z-average [3, 8] of 67.5 nm and a Zeta potential [3, 8] of 37.5 mV.

With “K(8Oc)2-Stp-K(8Oc)-K(8Oc) [compound 1620]” the Pdl [3, 8] was 0.130, the Z-average [3, 8] was 134.3 nm and the Zeta potential [3, 8] was 22.7 mV. For the same molecule, the Pdl [3, 9] was 0.152, the Z-average [3, 9] was 271.1 nm and the Zeta potential [3, 9] was −1.41 mV.

In the case of K(12Bu)-Stp-K(12Bu) [compound 1763], the “mCherry mRNA/eGFP pDNA co-expression (co-delivery efficiency)” value [4] is reported as “most potent structures”.

For K(12He)-Stp-K(12He) [compound 1765], the “mCherry mRNA/eGFP pDNA co-expression (co-delivery efficiency)” value [4] was “most potent structures”.

Work on K(12Oc)2-Stp2 [compound 1710] yielded a Pdl [3, 10] of 0.246 ± 0.024, a Z-average [3, 10] of 111.8 ± 11.4 nm and a Zeta potential [3, 10] of 15.6 ± 2.1 mV. For the same molecule, the “dose dependence of pDNA transfection efficiency” value [5] was “good performance only at the highest dose”.

“K(12Oc)2-Stp2-K(12Oc)-K(12Oc) [compound 1722]” gave a Pdl [3, 11] of 0.339, a Z-average [3, 11] of 92.5 nm and a Zeta potential [3, 11] of 44.4 mV. For the same molecule, the “transfection efficiency (luciferase expression) of mRNA polyplexes” value ([6]; 24 h, dose titration 63, 31, 16 ng mRNA/well, vs succPEI and 1218) was “dose-independent transfection efficiency” and the “transfection efficiency (luciferase expression) of pDNA polyplexes” value [5] was “most potent pDNA carriers”.

For “K(12Oc)2-Stp2-K[K(12Oc)2] [compound 1717]”, the “transfection efficiency (luciferase expression) of pDNA polyplexes” value [5] was “most potent pDNA carriers”.

Molecule K(12Oc)2-Stp [compound 1614] has a Pdl [3, 11] of 0.223, a Z-average [3, 11] of 111.6 nm and a Zeta potential [3, 11] of 15.7 mV.

In the case of “K(12Oc)2-Stp-K(12Oc)-K(12Oc) [compound 1612]”, the Pdl [3, 9] is reported as 0.273, the Z-average [3, 9] is reported as 275.8 nm and the Zeta potential [3, 9] is reported as 1.88 mV.

Work on “K(12Oc)-(^εK-^εK-6-Ahx)-K(12Oc) [compound 1747]” yielded a Pdl [3, 11] of 0.146, a Z-average [3, 11] of 91.1 nm and a Zeta potential [3, 11] of 17.5 mV.

For “K(DodOc)2-Stp2-K(DodOc)-K(DodOc) [compound 1725]”, the “transfection efficiency of mRNA polyplexes, DodOc (amide) control vs LAF analog” value ([6]; N/P 12, 62.5 ng mRNA/well) was “ineffective” and the “transfection efficiency of pDNA polyplexes, DodOc (amide) control vs LAF analog” value ([5]; N/P 12, 200 ng pCMVLuc/well) was “ineffective”.

For K[K2-K(12Oc)2]2 [compound 1851], the “RLU values relative to Stp2 analog 1717” value ([6]; 15 ng mRNA/well) was “around 10 fold” and the “transfection efficiency of mRNA polyplexes vs Stp2 analog 1717” value ([6]; all tested N/P ratios, 50 and 15 ng mRNA/well) was “outperformed its Stp2 analog”.

With “K[K(12Oc)2]-Stp-K[K(12Oc)2] [compound 1720]” the Pdl [3, 9] was 0.196, the Z-average [3, 9] was 209.8 nm and the Zeta potential [3, 9] was 0.70 mV.

For K[K[8Oc)2]2-Stp2 [compound 1730], the “RLU values of targeted polyplexes in comparison to shielded polyplexes” value ([7]; N/P 12, pDNA dose 50 ng/well) was 32.8 fold, the “RLU values of targeted polyplexes in comparison to shielded polyplexes” value ([7]; N/P 12, pDNA dose 100 ng/well) was 25.5 fold and the Pdl [3, 12] was 0.22. For the same molecule, the Size [3, 12] was 100, the Zeta [3, 12] was 2.0 and the Pdl [3, 13] was 0.17. For the same molecule, the Size [3, 13] was 125, the Zeta [3, 13] was 2.0 and the Pdl [3, 14] was 0.21. It also gave a Size [3, 14] of 109, a Zeta [3, 14] of 15.9 and a PDI [3, 15] of 0.10 ± 0.01. It also gave a Z-average [3, 15] of 95.3 ± 1.6 nm and a Zeta potential [3, 15] of 21.7 ± 0.6 mV.

For K[K[12Oc)2]2-Stp [compound 1613], the Pdl [3, 9] was 0.159, the Z-average [3, 9] was 176.8 nm and the Zeta potential [3, 9] was −3.03 mV.

In the case of Stp-K[K(12Oc)2]-Stp [compound 1715], the Pdl [3, 10] is reported as 0.100 ± 0.010, the Z-average [3, 10] is reported as 89.8 ± 1.4 nm and the Zeta potential [3, 10] is reported as 24.47 ± 1.4 mV. For the same molecule, the “dose dependence of pDNA transfection efficiency” value [5] was “good performance only at the highest dose”.

With “[K(8Oc)]2-Stp2-[K(8Oc)]2 [compound 1745]” the Pdl [3, 16] was 0.266 ± 0.046, the Z-average [3, 16] was 99.4 ± 7.9 nm and the Zeta potential [3, 16] was 11.9 ± 1.6 mV.

In the case of “[K(12He)]2-Stp2-[K(12He)]2 [compound 1760]”, the “in vivo luciferase expression of mRNA polyplexes” value ([1]; tumors, lungs, liver, spleen) is reported as “great in vivo performance”.

“[K(12Oc)]2-Stp-[K(12Oc)]2 [compound 1718]” gave a Pdl [3, 8] of 0.223, a Z-average [3, 8] of 107.5 nm and a Zeta potential [3, 8] of 36.0 mV. For the same molecule, the Pdl [3, 9] was 0.140, the Z-average [3, 9] was 198.1 nm and the Zeta potential [3, 9] was 0.03 mV.
